The values below come from ChEMBL document CHEMBL5291721, “A preclinical secondary pharmacology resource illuminates target-adverse drug reaction associations of marketed drugs” (Nat Commun, 2023).

By AC50 is commonly meant the concentration giving half of the maximal activity seen.
Further: assay procedure not described here.

Voltage-gated inwardly rectifying potassium channel KCNH2, sequence (Q12809 whole entry): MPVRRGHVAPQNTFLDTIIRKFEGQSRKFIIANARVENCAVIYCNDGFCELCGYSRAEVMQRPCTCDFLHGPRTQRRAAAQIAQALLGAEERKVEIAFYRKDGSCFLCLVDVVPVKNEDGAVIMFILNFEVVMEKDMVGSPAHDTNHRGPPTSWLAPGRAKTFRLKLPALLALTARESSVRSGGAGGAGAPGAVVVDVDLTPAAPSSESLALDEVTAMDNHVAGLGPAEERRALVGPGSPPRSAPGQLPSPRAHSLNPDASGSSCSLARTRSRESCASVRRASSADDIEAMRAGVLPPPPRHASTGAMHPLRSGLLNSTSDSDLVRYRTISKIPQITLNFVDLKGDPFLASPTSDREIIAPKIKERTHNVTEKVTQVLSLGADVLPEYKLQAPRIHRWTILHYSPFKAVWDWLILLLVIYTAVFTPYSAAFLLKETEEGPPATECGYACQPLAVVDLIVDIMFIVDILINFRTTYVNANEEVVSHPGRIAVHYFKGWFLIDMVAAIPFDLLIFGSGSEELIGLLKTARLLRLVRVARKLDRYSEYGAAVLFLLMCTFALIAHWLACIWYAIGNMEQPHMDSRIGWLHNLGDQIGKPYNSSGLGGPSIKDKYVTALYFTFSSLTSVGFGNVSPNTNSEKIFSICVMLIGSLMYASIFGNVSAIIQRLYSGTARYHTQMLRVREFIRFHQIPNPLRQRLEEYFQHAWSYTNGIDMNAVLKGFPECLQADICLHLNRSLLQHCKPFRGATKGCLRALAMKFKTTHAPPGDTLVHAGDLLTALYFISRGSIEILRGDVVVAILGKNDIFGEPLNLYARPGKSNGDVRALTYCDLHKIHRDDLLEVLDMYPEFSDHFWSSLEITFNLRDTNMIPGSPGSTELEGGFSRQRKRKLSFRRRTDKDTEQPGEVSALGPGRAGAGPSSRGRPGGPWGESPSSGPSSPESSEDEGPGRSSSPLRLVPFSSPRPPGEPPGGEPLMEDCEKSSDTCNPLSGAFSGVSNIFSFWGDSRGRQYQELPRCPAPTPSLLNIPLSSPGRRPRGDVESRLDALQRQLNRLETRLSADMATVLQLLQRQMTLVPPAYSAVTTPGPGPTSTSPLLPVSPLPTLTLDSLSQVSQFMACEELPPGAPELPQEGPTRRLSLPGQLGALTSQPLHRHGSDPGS

This assay addresses Voltage-gated inwardly rectifying potassium channel KCNH2 (Homo sapiens, UniProt Q12809). It is filed as functional. To be noted: read-out: AC50.
With `COc1ccc(-c2cc(=S)ss2)cc1` [ANETHOLTRITHION], the AC50 is 23.3 µM.
As for `C[C@]12CCC(=O)C=C1C=C[C@@H]1[C@@H]2CC[C@@]2(C)[C@H]1CC[C@@]21CCC(=O)O1` [CANRENONE], the figure is over 30 µM; as for `CN(C)CCC(O)(c1ccccc1)c1ccccc1Cl` (stereo not given) [CHLOPHEDIANOL], 3.4 µM.
The value for `C[C@]12C=CC(=O)C=C1C(Cl)=C[C@@H]1[C@@H]2[C@@H](O)C[C@@]2(C)[C@H]1CC[C@]2(O)C(=O)CO` [CLOPREDNOL] was over 30 µM; that for `C[C@]12CCC(=O)C=C1[C@@H]1C[C@@H]1[C@H]1[C@@H]3[C@@H]4C[C@@H]4[C@@]4(CCC(=O)O4)[C@@]3(C)CC[C@@H]12` [DROSPIRENONE] was over 30 µM; that for `CC(C)(Oc1ccc(Cl)cc1)C(=O)OCCOC(=O)c1cccnc1` [ETOFIBRATE] was over 30 µM.
In the case of `CCC(=O)c1ccc2c(c1)N(CC(C)N(C)C)c1ccccc1S2` (stereo not given) [PROPIOMAZINE], the AC50 was 0.685 µM.
As for `CN(C)[C@@H]1C(O)=C(C(=O)NCN2CCCC2)C(=O)[C@@]2(O)C(O)=C3C(=O)c4c(O)cccc4[C@@](C)(O)[C@H]3C[C@@H]12` [ROLITETRACYCLINE], the figure is over 30 µM; as for `CC1(C)O[C@@H]2C[C@H]3[C@@H]4CCC5=CC(=O)C=C[C@]5(C)[C@@]4(F)[C@@H](O)C[C@]3(C)[C@]2(C(=O)CO)O1` [TRIAMCINOLONE ACETONIDE], over 30 µM; as for `Oc1cc(Cl)ccc1Oc1ccc(Cl)cc1Cl` [TRICLOSAN], over 30 µM.
